Assay results published in patent US10981911B2, “Imidazopyrrolopyridine as inhibitors of the JAK family of kinases” (Janssen Pharmaceutica NV, priority 2016, dated 2021).

Tests used:
[1] = target: Tyk2-JH1JH2 (Homo sapiens (Human), UniProt P29597, C1142A/C936A); experiment: Enzymatic inhibition assay (RapidFire HTMS), Tyk2; assay type: biochemical; details: 50 μM ATP, 200 μM substrate
Outline: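 Compounds were tested in duplicate as 11-point 1:3 or 1:4 DMSO dilutions (≤0.25% DMSO final) in 20 μL reactions at 25 °C for 90 min, with Tyk2 pre-incubated 30 min with 2 mM ATP. Reactions were quenched with TFA plus internal standard peptide, and phosphorylated product was quantified by RapidFire C4 SPE–ESI MS.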

[2] = In vivo intracolonic (i.c.) dosing: plasma and colon tissue concentrations (Protocol 3); design: species or system female C57BL/6 mice; details: mice; for concentration at 4 h: colon, read-out: Colon Concentration After i.c. Dosing, Mean
From the text: Plasma and colon concentration results were obtained by following Protocol 1 using venipuncture of dorsal metatarsal vein bleed for Compounds (B), (C), and Examples 10 and 74. Plasma and colon concentration results were obtained by following Protocol 2 using retro-orbital bleed for Compounds (A), and Examples 1, and 3-5 and Protocol 2 using venipuncture of the dorsal metatarsal vein for Examples 2, 22, 34, 38, 55, and 85. Plasma and colon concentration results were obtained by following Protocol 3 for Examples 1, 3 and 4. These protocols are described below under the heading In vivo Studies.
Intracolonic (IC) dose group: Following anesthesia with isoflurane by inhalation, three non-fasted female C57BL/6 mice were administered the compound intracolonically through a small incision in the abdominal wall using a syringe and needle at a dose of 5 mg/kg as a solution in 20% HPβCD at a dose volume of 1 mL/kg. Blood samples were collected at 0.5, 2, and 4 h post dose via retro-orbital bleed. Blood samples were collected into tubes containing anticoagulant (Heparin-Na) and placed on wet ice. The plasma fraction was separated by centrifugation and frozen at −20° C. for up to 4 h and −80° C. after 4 h unless analyzed shortly after sample collection. Colon samples were collected at 4 h post dose. From 2 cm below the cecum, a 4-cm sample of the colon was dissected, cut open on the longitudinal axis, and the solid contents removed by flushing with 2 mL of saline. The colon was further washed by putting it in 5 mL of saline and shaken for 5 seconds. The colon sample was then patted dry, weighed, and homogenized as 1 part tissue (g) to 4 parts HPLC grade water (mL). Concentrations of the compound in plasma and colon homogenate were determined using a qualified liquid chromatography-triple quadrupole mass spectrometry (LC-MS/MS) method. This protocol was used to evaluate IC dosing of the following test compounds: Examples 1, 3, and 4.

[3] = target: JAK1-JH1JH2 (Homo sapiens (Human), UniProt P23458); experiment: Enzymatic inhibition assay (RapidFire HTMS), JAK1; assay type: biochemical; details: 12.5 μM ATP, 200 μM substrate; read-out: JAK1-JH2JH1 IC50
JAK1-JH1JH2, sequence (P23458 574-1154): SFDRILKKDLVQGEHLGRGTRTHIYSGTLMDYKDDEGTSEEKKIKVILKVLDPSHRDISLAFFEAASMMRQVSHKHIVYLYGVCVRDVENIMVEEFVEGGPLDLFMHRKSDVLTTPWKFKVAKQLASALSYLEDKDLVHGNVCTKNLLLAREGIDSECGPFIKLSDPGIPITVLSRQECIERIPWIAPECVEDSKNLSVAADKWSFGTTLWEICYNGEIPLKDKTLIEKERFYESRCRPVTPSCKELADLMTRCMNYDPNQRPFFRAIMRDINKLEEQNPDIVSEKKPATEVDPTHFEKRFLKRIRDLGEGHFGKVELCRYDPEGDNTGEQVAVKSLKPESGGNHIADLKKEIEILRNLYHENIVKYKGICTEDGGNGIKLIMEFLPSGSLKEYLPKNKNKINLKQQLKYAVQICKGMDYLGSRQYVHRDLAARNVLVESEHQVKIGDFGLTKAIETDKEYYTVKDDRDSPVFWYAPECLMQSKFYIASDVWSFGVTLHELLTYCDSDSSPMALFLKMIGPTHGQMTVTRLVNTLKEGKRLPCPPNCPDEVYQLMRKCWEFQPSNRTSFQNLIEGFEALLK
Outline: (§1)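 Quenched with 0.5% TFA plus internal-standard peptide; phosphorylated product quantified by RapidFire C4 SPE–ESI-MS, 11-point 1:3 or 1:4 dilutions in duplicate.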

[4] = target: JAK2-JH1JH2 (Homo sapiens (Human), UniProt O60674); experiment: Enzymatic inhibition assay (RapidFire HTMS), JAK2; assay type: biochemical; details: 30 μM ATP, 40 μM substrate
JAK2-JH1JH2, sequence (O60674 532-1132): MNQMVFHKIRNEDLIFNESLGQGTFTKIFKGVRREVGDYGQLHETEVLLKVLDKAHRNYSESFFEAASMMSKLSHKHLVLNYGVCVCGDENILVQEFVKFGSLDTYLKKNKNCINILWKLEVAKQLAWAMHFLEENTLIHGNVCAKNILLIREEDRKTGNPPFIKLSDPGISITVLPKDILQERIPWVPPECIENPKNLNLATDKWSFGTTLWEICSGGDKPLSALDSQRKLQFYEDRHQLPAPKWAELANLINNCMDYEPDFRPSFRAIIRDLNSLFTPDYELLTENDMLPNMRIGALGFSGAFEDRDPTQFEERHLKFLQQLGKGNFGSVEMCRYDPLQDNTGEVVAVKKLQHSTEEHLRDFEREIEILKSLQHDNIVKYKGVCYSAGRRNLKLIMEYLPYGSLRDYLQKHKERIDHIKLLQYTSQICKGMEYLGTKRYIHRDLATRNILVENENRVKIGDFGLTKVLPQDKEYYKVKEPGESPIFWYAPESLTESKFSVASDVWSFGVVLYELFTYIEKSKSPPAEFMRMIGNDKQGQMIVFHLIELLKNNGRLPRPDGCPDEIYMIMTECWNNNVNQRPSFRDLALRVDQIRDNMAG
Outline: as §1

[5] = female, C57BL/6, mouse, other: intracolonic (i.c.), 5 mg/kg i.c.
[6] = female, C57BL/6, mouse, plasma, other: intracolonic (i.c.), 5 mg/kg i.c., read-out: Plasma Concentration After i.c. Dosing, Mean

Tyk2-JH1JH2, sequence (P29597 580-1182 C936A/C1142A): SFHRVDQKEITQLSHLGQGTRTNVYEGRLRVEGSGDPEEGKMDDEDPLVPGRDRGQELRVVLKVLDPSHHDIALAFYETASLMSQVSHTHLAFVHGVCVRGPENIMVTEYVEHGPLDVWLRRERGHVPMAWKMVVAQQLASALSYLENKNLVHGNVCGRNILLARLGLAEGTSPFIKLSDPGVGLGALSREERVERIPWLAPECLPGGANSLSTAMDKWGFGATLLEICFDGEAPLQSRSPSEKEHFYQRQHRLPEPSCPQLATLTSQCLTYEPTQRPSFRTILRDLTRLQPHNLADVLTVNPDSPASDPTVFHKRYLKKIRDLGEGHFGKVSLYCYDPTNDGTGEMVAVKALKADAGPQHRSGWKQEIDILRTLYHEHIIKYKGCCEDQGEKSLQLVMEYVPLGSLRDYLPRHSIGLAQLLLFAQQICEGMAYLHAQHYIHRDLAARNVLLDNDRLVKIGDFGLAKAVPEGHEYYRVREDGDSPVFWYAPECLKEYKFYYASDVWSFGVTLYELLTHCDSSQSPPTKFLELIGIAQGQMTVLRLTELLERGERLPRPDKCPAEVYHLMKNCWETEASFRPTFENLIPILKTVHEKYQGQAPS

Row | Structure (SMILES) | IC50 [1] [nM] | concentration at 4 h [2, 5] [ng/g] | concentration at 0.5 h [2, 6] [ng/mL] | systemic exposures after i.c. dosing [2] | IC50 [3] [nM] | IC50 [4] [nM] | concentration at 2 h ([2]; female, C57BL/6, mouse, plasma, other: intracolonic (i.c.), 5 mg/kg i.c., Time = 2 h, read-out: Plasma Concentration After i.c. Dosing, Mean) [ng/mL]
1 | CC(C)(O)CNC(=O)Cc1nc2cnc3[nH]ccc3c2n1[C@H]1CC[C@H](CC#N)CC1 [Ex. 1, 2-(1-((1r,4r)-4-(Cyanomethyl)cyclohexyl)-1,6-dihydroimidazo[4,5-d]pyrrolo[2,3-b]pyridin-2-yl)-N-(2-hydroxy-2-methylpropyl)acetamide] | 6.9 | 681 | 2.5 | low systemic exposures | 0.3 | 8.2 | –
2 | N#CC[C@H]1CC[C@H](n2c(CC(=O)NCC3CC3)nc3cnc4[nH]ccc4c32)CC1 [Ex. 3, 2-(1-((1r,4r)-4-(Cyanomethyl)cyclohexyl)-1,6-dihydroimidazo[4,5-d]pyrrolo[2,3-b]pyridin-2-yl)-N-(cyclopropylmethyl)acetamide] | – | 228 | 1.5 | low systemic exposures | – | – | –
3 | N#CCCNC(=O)Cc1nc2cnc3[nH]ccc3c2n1[C@H]1CC[C@H](CC#N)CC1 [Ex. 4, N-(2-Cyanoethyl)-2-(1-((1r,4r)-4-(cyanomethyl)cyclohexyl)-1,6-dihydroimidazo[4,5-d]pyrrolo[2,3-b]pyridin-2-yl)acetamide] | – | 26.1 | 3.8 | low systemic exposures | – | – | 2.5
4 | CC(C)(C#N)CNC(=O)Cc1nc2cnc3[nH]ccc3c2n1[C@H]1CC[C@H](CC#N)CC1 [Ex. 22, N-(2-Cyano-2-methylpropyl)-2-(1-((1r,4r)-4-(cyanomethyl)cyclohexyl)-1,6-dihydroimidazo[4,5-d]pyrrolo[2,3-b]pyridin-2-yl)acetamide] | 4.1 | – | – | – | 0.1 | 5.4 | –
5 | N#CC[C@H]1CC[C@H](n2c(CC(=O)NCC3(O)CCC3)nc3cnc4[nH]ccc4c32)CC1 [Ex. 34, 2-(1-((1r,4r)-4-(Cyanomethyl)cyclohexyl)-1,6-dihydroimidazo[4,5-d]pyrrolo[2,3-b]pyridin-2-yl)-N-((1-hydroxycyclobutyl)methyl)acetamide] | 3.1 | – | – | – | 0.2 | 3.1 | –
6 | N#CCC12CCC(NC(=O)Cc3nc4cnc5[nH]ccc5c4n3[C@H]3CC[C@H](CC#N)CC3)(CC1)C2 [Ex. 55, N-(4-(Cyanomethyl)bicyclo[2.2.1]heptan-1-yl)-2-(1-((1r,4r)-4-(cyanomethyl)cyclohexyl)-1,6-dihydroimidazo[4,5-d]pyrrolo[2,3-b]pyridin-2-yl)acetamide] | 4.7 | – | – | – | 0.2 | 2.9 | –
7 | N#CC[C@H]1CC[C@H](n2c(CC(=O)NCC3(O)CC3)nc3cnc4[nH]ccc4c32)CC1 [Ex. 85, 2-(1-((1r,4r)-4-(Cyanomethyl)cyclohexyl)-1,6-dihydroimidazo[4,5-d]pyrrolo[2,3-b]pyridin-2-yl)-N-((1-hydroxycyclopropyl)methyl)acetamide] | 5.4 | – | – | – | 0.4 | 6.2 | –
